Laboratory results reported in patent US20230117034A1, “PYRAZOLOTRIAZINES” (Bayer Aktiengesellschaft, priority 2019, published 2023).

Assays:
[1] = system: BRCA1 mRNA expression in MDA-MB-231 cells; assay: qRT-PCR assay: BRCA1 mRNA expression in MDA-MB-231; format: cell-based, human; details: Homo sapiens, MDA-MB-231, Inhibition of BRCA1 mRNA expression in MDA-MB-231 cells; median; read-out: RTqPCR-MDA-MB-231, IC50, BRCA1 (median)
Summary of the method: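 Cells were seeded at 200,000 cells/well, left 24 h, then exposed continuously to test substances for 24 h. Total RNA (600 ng) was reverse-transcribed to cDNA and amplified by qPCR, and transcript levels were normalised to GAPDH housekeeping expression.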

CDK12/CycK = CDK12/CycK (Homo sapiens, UniProt Q9NYV4); assay: CDK12/CycK high ATP kinase assay (TR-FRET, 2 mM ATP); format: biochemical; details: 2 mM ATP (high ATP); median; read-out: CDK12/CyclinK, 2 mM ATP (high ATP), IC50-[mol/l] (median)
Chain of CDK12/CycK (Q9NYV4 with tags, fused parts or gaps): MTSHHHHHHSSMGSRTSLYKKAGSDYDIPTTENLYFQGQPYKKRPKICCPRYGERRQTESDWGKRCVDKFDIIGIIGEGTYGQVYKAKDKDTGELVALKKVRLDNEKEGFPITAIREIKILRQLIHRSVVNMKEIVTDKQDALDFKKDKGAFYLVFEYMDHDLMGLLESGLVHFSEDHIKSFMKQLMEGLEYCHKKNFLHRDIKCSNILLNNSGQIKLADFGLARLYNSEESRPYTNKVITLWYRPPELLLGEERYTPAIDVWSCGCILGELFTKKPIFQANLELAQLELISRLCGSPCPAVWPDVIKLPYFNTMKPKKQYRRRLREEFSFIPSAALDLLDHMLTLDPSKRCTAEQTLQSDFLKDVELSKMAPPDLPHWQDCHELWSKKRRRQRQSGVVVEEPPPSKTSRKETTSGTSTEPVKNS
Chain of CDK12/CycK (O75909 1-300 partner limits assumed): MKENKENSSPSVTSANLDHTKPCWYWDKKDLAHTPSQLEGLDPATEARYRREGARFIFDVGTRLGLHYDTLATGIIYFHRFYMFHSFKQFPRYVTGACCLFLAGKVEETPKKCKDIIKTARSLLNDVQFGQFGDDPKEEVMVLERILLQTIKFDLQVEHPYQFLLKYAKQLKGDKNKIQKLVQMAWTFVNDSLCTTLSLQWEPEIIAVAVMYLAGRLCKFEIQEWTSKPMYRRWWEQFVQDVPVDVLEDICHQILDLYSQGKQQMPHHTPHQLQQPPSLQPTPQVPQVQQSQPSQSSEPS
Summary of the method: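 His-tagged human CDK12/CycK (~0.75 nM) pre-incubated 15 min with compound, then 60 min at 22 °C with 2 mM ATP and 1 µM biotinylated peptide (HEPES pH 7.5, 20 mM MgCl2). EDTA stop; phospho-Ser62 antibody/Eu anti-rabbit and streptavidin-XL665 TR-FRET, 665/620 nm ratio normalised to give IC50.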

[2] = system: MDA-MB-231, human breast cancer cells; assay: Proliferation assay MDA-MB-231 (crystal violet, 4 days); format: cell-based; details: Homo sapiens, MDA-MB-231, 96 h, MDA-MB-231 cells, median, read-out: Prolif-MDA MB-231, IC50-[mol/l] (median)
Summary of the method: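 Cells seeded at 4,000/well in medium with 10% FCS; after 24 h, compounds added at 0.01-10 µmol/L (0.1% DMSO) for 4 days. Glutaraldehyde-fixed, crystal violet-stained, absorbance at 595 nm normalized to zero-point plate (0%) and untreated cells (100%); IC50 by 4-parameter fit.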

Compound	IC50 [1] [nM]	IC50 (CDK12/CycK) [nM]	IC50 [2] [nM]
Brc1cnn2c(NCc3nc4ccccc4[nH]3)nc(N3CCN4CCC3CC4)nc12 [Example 349, N-[(1H-benzimidazol-2-yl)methyl]-8-bromo-2-(1,4-diazabicyclo[3.2.2]nonan-4-yl)pyrazolo[1,5-a][1,3,5]triazin-4-amine]	15.6	8670	12.9
Brc1cnn2c(NCc3nc4ccccc4[nH]3)nc(N3C[C@H]4CC[C@@H]3CO4)nc12 (single isomer, unassigned) [Example 383, N-[(1H-benzimidazol-2-yl)methyl]-8-bromo-2-{[1R or S-(1R*,4R*)]-2-oxa-5-azabicyclo[2.2.2]octan-5-yl}pyrazolo[1,5-a][1,3,5]triazin-4-amine]	4.01	4970	30
Fc1c(Cl)ccc2[nH]c(CNc3nc(N4CC5CCC(C4)N5)nc4c(C5CC5)cnn34)nc12 [Example 379, N-[(5-chloro-4-fluoro-1H-benzimidazol-2-yl)methyl]-8-cyclopropyl-2-(3,8-diazabicyclo[3.2.1]octan-3-yl)pyrazolo[1,5-a][1,3,5]triazin-4-amine]	2.36	528	2.92
Cc1cc2nc(CNc3nc(N(C)CC(C)(C)O)nc4c(Br)cnn34)[nH]c2cc1C [Example 343, 1-[(8-bromo-4-{[(5,6-dimethyl-1H-benzimidazol-2-yl)methyl]amino}pyrazolo[1,5-a][1,3,5]triazin-2-yl)(methyl)amino]-2-methylpropan-2-ol]	1.91	188	2.84
Clc1cc2nc(CNc3nc(N4CC5CCC(C4)N5)nc4c(Br)cnn34)[nH]c2cc1Cl [Example 334, 8-bromo-2-(3,8-diazabicyclo[3.2.1]octan-3-yl)-N-[(5,6-dichloro-1H-benzimidazol-2-yl)methyl]pyrazolo[1,5-a][1,3,5]triazin-4-amine]	4.02	2030	2.18
